Test results reported in patent US8058242B2, “Chimeric proteins with natriuretic activity” (The University of Queensland, priority 2004, dated 2011).
“And” between values parts separate entries of the source, which are not always exact repeats. Identical values can stand only once. Positions of bridges follow the written chain, without caps; N, C: chain ends. Residues, ends and D or L forms follow the SMILES beside them.

Key:
conscious rabbits = assay: Blood pressure and heart rate in conscious rabbits, intravenous infusion dose-response (Example 8); settings: for Diastolic BP, mean difference from control / HR, mean difference from control / Mean BP, mean difference from control / Systolic BP, mean difference from control: 45 min
Plasmin = biological target: T1, Plasmin (Homo sapiens, UniProt P00747); assay: Stability to enzymatic degradation by plasmin (Examples 7, 16); type: in vitro ADME; settings: plasmin, 37° C.
T1 construct: with 500 ng Endopeptidase (NEP) or 10 μg Plasmin
T1 sequence (P00747 97-580 partner limits assumed, species assumed): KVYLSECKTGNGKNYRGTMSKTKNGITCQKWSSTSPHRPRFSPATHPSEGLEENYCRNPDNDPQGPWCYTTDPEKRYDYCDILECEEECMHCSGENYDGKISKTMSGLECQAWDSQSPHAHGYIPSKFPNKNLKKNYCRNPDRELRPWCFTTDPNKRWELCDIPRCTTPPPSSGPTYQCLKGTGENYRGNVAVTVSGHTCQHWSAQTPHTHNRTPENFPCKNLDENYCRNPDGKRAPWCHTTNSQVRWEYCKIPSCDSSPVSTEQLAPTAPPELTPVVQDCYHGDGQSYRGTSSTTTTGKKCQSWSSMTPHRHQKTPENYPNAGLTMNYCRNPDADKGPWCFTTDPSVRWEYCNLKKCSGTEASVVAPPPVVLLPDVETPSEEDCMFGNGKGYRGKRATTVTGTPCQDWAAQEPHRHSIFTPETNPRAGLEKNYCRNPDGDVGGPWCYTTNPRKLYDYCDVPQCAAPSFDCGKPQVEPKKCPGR
T1 sequence (P00747 581-810 limits assumed, species assumed): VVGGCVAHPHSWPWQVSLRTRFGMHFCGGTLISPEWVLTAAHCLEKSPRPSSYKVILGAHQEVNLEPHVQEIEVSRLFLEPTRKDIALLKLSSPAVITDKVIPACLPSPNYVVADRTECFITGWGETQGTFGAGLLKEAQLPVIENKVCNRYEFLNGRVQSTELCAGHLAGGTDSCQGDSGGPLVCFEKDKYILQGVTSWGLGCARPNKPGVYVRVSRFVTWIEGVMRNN
Description: The incubation buffer contained 100 mM Tris/HCl and 150 mM NaCl and the pH was adjusted to 7.2-7.4. In each assay, 100 μl of peptide [500 μM] was incubated with 300 μl buffer (with 500 ng Endopeptidase (NEP) or 10 μg Plasmin) at 37° C. 50 μl aliquots were taken at times 5 min, 30 min, 60 min, 90 min, 180 min and 24 h. The reaction was quenched by heating to 100° C. for 4 min and the remaining peptide concentrations measured by RP-HPLC. Note that the levels of Plasmin required to degrade these peptides was several thousands time the levels present in human plasma.
The stability of TDT and was investigated using the same enzymatic degradation assays (NEP, plasmin, pepsin) disclosed in Example 7. […] It is also evident that the increased NEP stability cannot be explained by the length of the tail region alone as the NEP cleavage site residues at the N-terminal end of the loop region.

[1] = biological target: T2, Natriuretic Peptide Receptor-A (NPR-A) signaling in MDCK cells (Canis lupus familiaris, UniProt A0A8I3MHU3); type: cell-based, canine; settings: stimulation of cGMP accumulation in MDCK cells
T2 sequence (A0A8I3MHU3 32-1060): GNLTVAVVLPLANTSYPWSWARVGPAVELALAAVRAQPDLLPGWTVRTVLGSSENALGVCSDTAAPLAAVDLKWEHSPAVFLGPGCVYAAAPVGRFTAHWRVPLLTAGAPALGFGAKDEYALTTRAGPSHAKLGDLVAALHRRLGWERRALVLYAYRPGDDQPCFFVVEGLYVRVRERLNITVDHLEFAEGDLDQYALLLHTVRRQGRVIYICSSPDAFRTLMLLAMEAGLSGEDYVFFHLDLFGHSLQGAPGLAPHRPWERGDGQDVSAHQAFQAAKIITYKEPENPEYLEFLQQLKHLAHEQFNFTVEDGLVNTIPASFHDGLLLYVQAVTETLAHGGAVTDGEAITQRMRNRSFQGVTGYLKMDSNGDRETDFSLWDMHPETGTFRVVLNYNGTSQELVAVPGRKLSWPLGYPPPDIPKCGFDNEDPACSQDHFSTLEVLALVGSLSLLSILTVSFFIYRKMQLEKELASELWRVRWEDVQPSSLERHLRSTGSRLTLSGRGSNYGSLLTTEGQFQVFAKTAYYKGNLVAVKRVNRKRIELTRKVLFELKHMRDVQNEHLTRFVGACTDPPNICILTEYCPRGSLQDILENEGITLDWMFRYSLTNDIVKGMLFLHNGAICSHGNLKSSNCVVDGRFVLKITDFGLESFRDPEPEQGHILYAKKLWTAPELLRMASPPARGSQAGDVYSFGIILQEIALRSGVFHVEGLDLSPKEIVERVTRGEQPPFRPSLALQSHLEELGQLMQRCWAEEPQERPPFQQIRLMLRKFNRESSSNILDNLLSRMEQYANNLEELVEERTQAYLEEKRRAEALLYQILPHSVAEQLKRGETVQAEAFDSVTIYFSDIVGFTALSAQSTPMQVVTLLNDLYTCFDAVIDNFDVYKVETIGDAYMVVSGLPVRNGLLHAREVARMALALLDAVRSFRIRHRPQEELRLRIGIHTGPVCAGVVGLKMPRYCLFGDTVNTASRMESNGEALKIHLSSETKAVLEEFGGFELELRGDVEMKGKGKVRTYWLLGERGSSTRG

[2] = system: endothelium-denuded aortic rings (GC-A mediated); assay: Aortic ring relaxation, endothelium-denuded rings pre-contracted with 40 mM KCl (Example 3); design: species or system rat; settings: endothelium-denuded rat aortas pre-contracted with 40 mM KCl; peptide 0.1 μM
Description: (§1) Male Sprague Dawley rats were killed and the descending thoracic aorta rapidly removed and flushed with physiological solution. After being cleared of adhering fat and connective tissue, 5 mm rings were mounted under 10 g resting tension, between two stainless steel hooks, in organ baths (37° C.) containing carbogenated (95% O2 and 5% CO2) physiological salt solution of the following composition (mM): NaCl, 118.4; NaHCO3, 25; glucose, 11; KCl, 4.7; MgSO4, 1.2; KH2PO4, 1.2 and CaCl2, 2.5. The lower hook was attached to a tissue holder and the upper hook to a force displacement transducer (Grass FTO3). Where indicated endothelial cells were removed by gentle rubbing of the intimal surface with a wire. To confirm the presence or absence of endothelial cells, tissues were precontracted with a sub-maximal concentration of phenylephrine (0.3 μM) and the response to acetylcholine (ACh, 10 μM) observed. Ach-induced relaxation greater than 80% of maximum indicated the presence of endothelium; whereas Ach-induced relaxation less than 10% indicated the absence of endothelium. Ring preparations under resting tension were conditioned by two contraction/relaxation cycles with 40 mM KCl, contracted by a third application of 40 mM KCl and then relaxed with different doses of the venom peptides. Responses were expressed as a percentage relaxation of the precontraction by KCl.

[3] = system: endothelium-intact aortic rings (NPR-C mediated); assay: Aortic ring relaxation, endothelium-intact rings pre-contracted with 40 mM KCl (Example 3); design: species or system rat; settings: endothelium-intact rat aortas pre-contracted with 40 mM KCl; peptide 0.1 μM
Description: as §1

[4] = average of the 3 doses 1.0, 2.0, 4.0 μg/kg/min

`CC[C@H](C)[C@H](NC(=O)[C@H](CCCCN)NC(=O)[C@H](CO)NC(=O)[C@H](CC(=O)O)NC(=O)[C@@H](N)CO)C(=O)NCC(=O)N[C@@H](CC(N)=O)C(=O)NCC(=O)N[C@H]1CSSC[C@@H](C(=O)N[C@@H](CC(N)=O)C(=O)N[C@@H](CCCNC(=N)N)C(=O)N[C@H](C(=O)N[C@@H](CCSC)C(=O)N[C@@H](CCC(N)=O)C(=O)N[C@@H](CC(N)=O)C(=O)N2CCC[C@H]2C(=O)N2CCC[C@H]2C(=O)N[C@@H](CCCCN)C(=O)N[C@@H](CCCCN)C(=O)N[C@@H](Cc2ccccc2)C(=O)N[C@@H](CO)C(=O)NCC(=O)N[C@@H](CCC(=O)O)C(=O)O)[C@@H](C)CC)NC(=O)CNC(=O)[C@H](CC(C)C)NC(=O)CNC(=O)[C@H](CO)NC(=O)[C@H](C(C)C)NC(=O)[C@H](CO)NC(=O)CNC(=O)[C@H]([C@@H](C)CC)NC(=O)[C@H](CCCNC(=N)N)NC(=O)[C@H](CC(=O)O)NC(=O)[C@H](CC(C)C)NC(=O)[C@@H]2CCCN2C(=O)[C@H](Cc2ccccc2)NC(=O)CNC(=O)[C@H](Cc2ccccc2)NC1=O` [TNPc] (H-SDSKIGNGCFGFPLDRIGSVSGLGCNRIMQNPPKKFSGE-OH; disulfide 9-25) was tested, and the “recovery of MAP, in words” value (conscious rabbits; 2 hours after infusion) was “remained suppressed for 2 hours”, the “MAP at final dose” value (conscious rabbits; Table 10B) was 58.9 mm Hg and 61.3 mm Hg and the “Recovery (MAP)” value (conscious rabbits; after 1 hour recovery period, Table 10A) was 56.6 mm Hg and 58.8 mm Hg. The “Recovery (MAP)” value (conscious rabbits; after a 2 hour recovery period, Table 10B) was 58.8 mm Hg and 66.1 mm Hg, the “Diastolic BP, Average Response SED” value (conscious rabbits; [4]) was −12.5 ± 0.6 mmHg and the “HR, Average Response SED” value (conscious rabbits; [4]) was 4.7 ± 3.8 bpm. For the same compound, the “Mean BP (MAP), Average Response SED” value (conscious rabbits; [4]) was −14.9±0.7 mmHg, the “Systolic BP, Average Response SED” value (conscious rabbits; [4]) was −13.2 ± 0.8 mmHg and the “effective half life compared to BNP” value (conscious rabbits; bolus injection) was 3 fold. The “time taken to recover to 50% of the peak response” value (conscious rabbits; bolus injection of 0.24 mg/kg TNPc or equivalent molar dose of BNP) was 225 min, the “MAP at final dose” value (conscious rabbits; highest dose, Table 10A) was 56.1 mm Hg and 58.9 mm Hg and the “Diastolic BP, mean difference from control” value (shortened to “Diastolic BP, mean difference”) (conscious rabbits; i.v. infusion 1.0 μg/kg/min) was −10.0 mmHg. The “HR, mean difference from control” value (conscious rabbits; i.v. infusion 1.0 μg/kg/min) was −3.5 bpm, the “Mean BP, mean difference from control” value (conscious rabbits; i.v. infusion 1.0 μg/kg/min) was −11.0 mmHg and the “Systolic BP, mean difference from control” value (“Systolic BP, mean difference” for short) (conscious rabbits; i.v. infusion 1.0 μg/kg/min) was −9.1 mmHg. For the same compound, the “Diastolic BP, mean difference” value (conscious rabbits; i.v. infusion 2.0 μg/kg/min) was −14.7 mmHg, the “HR, mean difference from control” value (conscious rabbits; i.v. infusion 2.0 μg/kg/min) was 3.7 bpm and the “Mean BP, mean difference from control” value (conscious rabbits; i.v. infusion 2.0 μg/kg/min) was −17.7 mmHg. The “Systolic BP, mean difference” value (conscious rabbits; i.v. infusion 2.0 μg/kg/min) was −15.6 mmHg, the “Diastolic BP, mean difference” value (conscious rabbits; i.v. infusion 4.0 μg/kg/min) was −12.8 mmHg and the “HR, mean difference from control” value (conscious rabbits; i.v. infusion 4.0 μg/kg/min) was 13.8 bpm. The “Mean BP, mean difference from control” value (conscious rabbits; i.v. infusion 4.0 μg/kg/min) was −15.9 mmHg, the “Systolic BP, mean difference” value (conscious rabbits; i.v. infusion 4.0 μg/kg/min) was −14.9 mmHg and the “recovery of MAP from the hypotension, in words” value (conscious rabbits; one hour after the end of infusion) was “MAP had not changed”. For the same compound, the half-life at 125 μM (Plasmin; plasmin in Tris/HCl-NaCl buffer, read-out: HalfLife in plasmin) was 23.6 min, the “K (one phase exponential decay, best fit values)” value (Plasmin) was 0.02935 and the “PLATEAU (one phase exponential decay, best fit values)” value (Plasmin) was 0.1128. The “SPAN (one phase exponential decay, best fit values)” value (Plasmin) was 0.8454, the “−Log10 EC50 (pEC50) ± Standard Error” value [1] was 6.928 ± 0.1122 and the EC50 ([1]; read-out: EC50 (M) ± Standard Error) was 1.84e-07 M. The “percentage relaxation of the precontraction by KCl” value [2] was about 100% and the “percentage relaxation of the precontraction by KCl” value [3] was about 100%.
